ChEMBL document CHEMBL1148388, “Restriction of a peptide turn conformation and conformational analysis of guanidino group using arginine-proline fused amino acids: application to mini atrial natriuretic peptide on binding to the receptor” (J Med Chem, 2004)

Test: Effective concentration required for production of cGMP in Chinese hamster ovary cells expressing natriuretic peptide receptor A (NPR-A)
Assay type: functional, cell-based

Molecule `CC[C@H](C)[C@@H]1NC(=O)[C@@H](CCCN=C(N)N)NC(=O)[C@H](CC(=O)O)NC(=O)[C@@H](CCSC)NC(=O)[C@H](CCCN=C(N)N)NC(=O)CNC(=O)CNC(=O)[C@@H](Cc2ccccc2)NC(=O)[C@H](Cc2c[nH]cn2)NC(=O)[C@@H](NC(=O)[C@@H](N)CCSC)CSSC[C@H](C(=O)N[C@@H](Cc2ccc(O)cc2)C(=O)N[C@@H](CCCN=C(N)N)C(N)=O)NC(=O)[C@@H](CO)NC1=O` [MiniANP] has an EC50 of 3.1 nM.
